Data published in US20240174690A1, “ANNULATED 2-AMINO-3-CYANO THIOPHENES AND DERIVATIVES FOR THE TREATMENT OF CANCER” (BOEHRINGER INGELHEIM INTERNATIONAL GMBH, priority 2021, published 2024).

Key:
[1] = biological target: KRAS (G12C)::SOS1 (Homo sapiens (Human), UniProt P01116, C118S/C51S/C80L/G12C); assay: KRAS::SOS1 AlphaScreen binding assay, KRAS G12C
Source text: This assay can be used to examine the potency with which compounds according to the invention binding to (mutated) KRAS inhibit the protein-protein interaction between SOS1 and (mutated) KRAS e.g., KRAS WT, KRAS G12C, KRAS G12D, KRAS G12V, KRAS G13D. […] Low IC50 values in this assay setting are indicative of strong inhibition of protein-protein interaction between SOS1 and KRAS:
These assays measure the inhibitory effect of compounds on KRAS mutant protein-protein interactions using the Alpha Screen technology by Perkin Elmer.
The following (mutant) enzyme forms of KRAS and interacting proteins are used in these assays at the given concentrations: • KRAS (G12D) 1-169, N-terminal 6His-tag, C-terminal avi-tag (Xtal BioStructures, Inc.); final assay concentration 10 nM and SOS1 564-1049, N-terminal 229 GST-tag, TEV cleavage site (Viva Biotech Ltd); final assay concentration 5 nM; • KRAS (G12C) 1-169, N-terminal 6His-tag for purification, cleaved off, C-terminal avi-tag, biotinylated, mutations: C51S, C80L, C118S (in house); final assay concentration 7.5 nM and SOS1 564-1049, N-terminal 229 GST-tag, TEV cleavage site (Viva Biotech Ltd); final assay concentration 5 nM; • KRAS (G12V) 1-169, N-terminal 6His-tag for purification, cleaved off, C-terminal avi-tag, biotinylated, TEV cleavage site, mutation: C118S, GDP loaded (in house); final assay concentration 10 nM and SOS1 564-1049, N-terminal 229 GST-tag, TEV cleavage site (Viva Biotech Ltd); final assay concentration 10 nM; • KRAS (G13D) 1-169, N-terminal 6His-tag for purification, cleaved off, C-terminal avi-tag, biotinylated, TEV cleavage site, mutation: C118S, GDP loaded (in house); final assay concentration 10 nM and SOS1 564-1049, N-terminal 229 GST-tag, TEV cleavage site (Viva Biotech Ltd); final assay concentration 10 nM; • KRAS (WT) 1-169, N-terminal 6His-tag for purification, cleaved off, C-terminal avi-tag, biotinylated, TEV cleavage site, mutation: C118S, GDP loaded (in house); final assay concentration 10 nM and SOS1 564-1049, N-terminal 229 GST-tag, TEV cleavage site (Viva Biotech Ltd); final assay concentration 10 nM.
Test compounds dissolved in DMSO are dispensed onto assay plates (Proxiplate 384 PLUS, white, PerkinElmer; 6008289) using an Access Labcyte Workstation with the Labcyte Echo 55×. For the chosen highest assay concentration of 100 μM, 150 nL of compound solution are transferred from a 10 mM DMSO compound stock solution. A series of eleven fivefold dilutions per compound are transferred to the assay plate, compound dilutions are tested in duplicates. DMSO are added as backfill to a total volume of 150 nL.
The assays run on a fully automated robotic system in a darkened room below 100 Lux. To 150 nl of compound dilution 10 μl of a mix including KRAS mutant protein, SOS1 (final assay concentrations see above) and GDP nucleotide (Sigma G7127; final assay concentration 10 μM) in assay buffer (1×PBS, 0.1% BSA, 0.05% Tween 20) are added into columns 1-24.
After 30 minutes incubation time 5 μl of Alpha Screen bead mix in assay buffer are added into columns 1-23. Bead mix consists of AlphaLISA Glutathione Acceptor Beads (PerkinElmer, Cat No AL109) and AlphaScreen Streptavidin Donor Beads (PerkinElmer Cat No 6760002) in assay buffer at a final assay concentration of 10 μg/ml each.
Plates are kept at room temperature in a darkened incubator. After an additional 60 minutes incubation time the signal is measured in a PerkinElmer Envision HTS Multilabel Reader using the AlphaScreen specs from PerkinElmer.
Each plate contains up to 16 wells of a negative control depending on the dilution procedure (platewise or serial) (DMSO instead of test compound; with KRAS mutant::SOS1 GDP mix and bead mix; column 23) and 16 wells of a positive control (DMSO instead of test compound; with KRAS mutant::SOS1 GDP mix w/o bead mix; column 24).
As internal control known inhibitors of KRAS mutant::SOS1 interaction can be measured on each compound plate. […]

[2] = tested on: SAS cells; assay: SAS CTG proliferation assay (120 h) (HNSCC, wt amplified); assay type: cell-based
Protocol: SAS CTG Proliferation Assay (120 h) (HNSCC, Wt Amplified)
SAS cells (JCRB0260) are dispensed into 384-well plates, flat and clear bottom (Greiner, PNr. 781091) at a density of 300 cells per well in 60 μL DMEM:F12 (Gibco 31330-038)+10% Fetal Calf Serum (HyClone, PNr.: SH30084.03) and incubated at 37° C. in a CO2 incubator overnight. The next day, compounds (10 mM stock in DMSO) are added with the ECHO acoustic liquid handler system (Beckman Coulter), including DMSO controls. Plates are incubated for 120 h, and cell viability is measured using CellTiter-Glo luminescent cell viability reagent (Promega product code G7570). Viability (stated as percent of control) is defined as relative luminescence units RLU of each well divided by the RLU of cells in DMSO controls. IC50 values are determined from viability measurements by non-linear regression using a four-parameter model.

KRAS (G12C)::SOS1, sequence (P01116 other isoform, or with tags, fused parts or gaps G12C/C51S/C80L/C118S): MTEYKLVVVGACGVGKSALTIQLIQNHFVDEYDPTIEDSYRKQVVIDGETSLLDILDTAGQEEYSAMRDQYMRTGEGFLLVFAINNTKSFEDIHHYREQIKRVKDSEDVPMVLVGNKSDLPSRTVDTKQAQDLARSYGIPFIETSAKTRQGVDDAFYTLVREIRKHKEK

IC50 [1] [nM]	Compound	IC50 [2] [nM]
2	CNC(=O)c1cn(-c2cc(O[C@@H](C)[C@@H]3CCCN3C)nc(-c3noc4c3CCC[C@@]43CCCc4sc(N)c(C#N)c43)n2)nn1 [II-122]	889
2	C[C@H](Oc1cc(N2CCNC[C@]23CCOC3)nc(-c2noc3c2CCC[C@@]32CCCc3sc(N)c(C#N)c32)n1)[C@@H]1CCCN1C [II-50]	41
3	C[C@H](Oc1cc(-c2cnn(C)c2)nc(-c2noc3c2CCC[C@@]32CCCc3sc(N)c(C#N)c32)n1)[C@@H]1CCCN1C [II-74]	192
5	C[C@H](Oc1cc(-n2cccc3cnnc2-3)nc(-c2noc3c2CCC[C@@]32CCCc3sc(N)c(C#N)c32)n1)[C@@H]1CCCN1C [II-92]	275
2	Cc1nccn1-c1cc(O[C@@H](C)[C@@H]2CCCN2C)nc(-c2noc3c2CCC[C@@]32CCCc3sc(N)c(C#N)c32)n1 [II-79]	2590
2	CO[C@@H]1C[C@@H]([C@H](C)Oc2cc(-c3ccn(C)n3)nc(-c3noc4c3CCC[C@@]43CCCc4sc(N)c(C#N)c43)n2)N(C)C1 [II-91]	70
1	C[C@H](Oc1cc(-c2ccn(C[C@@H](C)O)n2)nc(-c2noc3c2CCC[C@@]32CCCc3sc(N)c(C#N)c32)n1)[C@@H]1CCCN1C [II-117]	22
2	C[C@H](Oc1cc(N2CCNC3(CC3)C2)nc(-c2onc3c2CCC[C@@]32CCCc3sc(N)c(C#N)c32)n1)[C@@H]1CCCN1C [I-5]	2040
3	C[C@H](Oc1cc(-c2cn[nH]c2)nc(-c2noc3c2CCC[C@@]32CCCc3sc(N)c(C#N)c32)n1)[C@@H]1CCCN1C [II-87]	107
2	C[C@H](Oc1cc(-c2ccn(C3COC3)n2)nc(-c2noc3c2CCC[C@@]32CCCc3sc(N)c(C#N)c32)n1)[C@@H]1CCCN1C [II-109]	20
4	C[C@H](Oc1cc(N2CCNC[C@@]23CCOC3)nc(-c2noc3c2CCC[C@@]32CCCc3sc(N)c(C#N)c32)n1)[C@@H]1CCCN1C [II-51]	70
2	C[C@H](Oc1cc(N2CCCC3(COC3)C2)nc(-c2noc3c2CCC[C@@]32CCCc3sc(N)c(C#N)c32)n1)[C@@H]1CCCN1C [II-72]	206
2	C[C@H](Oc1cc(-n2cc(Cn3ccnc3)nn2)nc(-c2noc3c2CCC[C@@]32CCCc3sc(N)c(C#N)c32)n1)[C@@H]1CCCN1C [II-113]	381
7	C[C@H](Oc1cc(-c2cncs2)nc(-c2noc3c2CCC[C@@]32CCCc3sc(N)c(C#N)c32)n1)[C@@H]1CCCN1C [II-80]	> 25000
1	C[C@H](O)Cn1ccc(-c2cc(O[C@@H](C)[C@@H]3CCCN3C)nc(-c3noc4c3CCC[C@@]43CCCc4sc(N)c(C#N)c43)n2)n1 [II-112]	54
3	C[C@H](Oc1cc(-c2cccc(CO)c2)nc(-c2noc3c2CCC[C@@]32CCCc3sc(N)c(C#N)c32)n1)[C@@H]1CCCN1C [II-97]	646
2	CO[C@@H]1C[C@@H]([C@H](C)Oc2cc(-c3ccn(C4COC4)n3)nc(-c3noc4c3CCC[C@@]43CCCc4sc(N)c(C#N)c43)n2)N(C)C1 [II-107]	7
2	C[C@H](Oc1cc(-n2cncn2)nc(-c2noc3c2CCC[C@@]32CCCc3sc(N)c(C#N)c32)n1)[C@@H]1CCCN1C [II-70]	41
3	C[C@H](Oc1cc(N2CCCC2=O)nc(-c2noc3c2CCC[C@@]32CCCc3sc(N)c(C#N)c32)n1)[C@@H]1CCCN1C [II-73]	33
2	C[C@H](Oc1cc(-n2ccc(Br)n2)nc(-c2noc3c2CCC[C@@]32CCCc3sc(N)c(C#N)c32)n1)[C@@H]1CCCN1C [II-110]	68
3	CO[C@@H]1C[C@@H]([C@H](C)Oc2cc(-c3cnn(C)n3)nc(-c3noc4c3CCC[C@@]43CCCc4sc(N)c(C#N)c43)n2)N(C)C1 [II-62]	50
